Experimental findings from ChEMBL document CHEMBL1909046, “DrugMatrix in vitro pharmacology data” are described below.

SMILES strings stand for the structures.

The target in one experiment is T1, B2 bradykinin receptor (Homo sapiens, UniProt P30411). Note: in other assays of this panel Not Active means under 50% inhibition at 10 µM.
T1 sequence (P30411 whole entry): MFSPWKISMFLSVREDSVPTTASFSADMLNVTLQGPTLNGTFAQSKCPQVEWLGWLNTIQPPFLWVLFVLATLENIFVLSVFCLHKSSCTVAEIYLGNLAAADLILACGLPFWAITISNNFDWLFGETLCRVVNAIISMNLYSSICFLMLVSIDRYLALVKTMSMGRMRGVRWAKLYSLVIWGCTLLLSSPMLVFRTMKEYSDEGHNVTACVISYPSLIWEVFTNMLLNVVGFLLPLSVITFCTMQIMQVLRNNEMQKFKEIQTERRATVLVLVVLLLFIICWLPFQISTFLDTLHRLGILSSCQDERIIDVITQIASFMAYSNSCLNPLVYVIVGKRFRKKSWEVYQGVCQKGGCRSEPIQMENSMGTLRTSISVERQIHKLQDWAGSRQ
The experiment is classed as cell membranes, Membrane. The following applies: chem-1.

The target of experiment [1] is T2, 5-hydroxytryptamine receptor 2C (Homo sapiens, UniProt P28335).
T2 sequence (P28335 whole entry): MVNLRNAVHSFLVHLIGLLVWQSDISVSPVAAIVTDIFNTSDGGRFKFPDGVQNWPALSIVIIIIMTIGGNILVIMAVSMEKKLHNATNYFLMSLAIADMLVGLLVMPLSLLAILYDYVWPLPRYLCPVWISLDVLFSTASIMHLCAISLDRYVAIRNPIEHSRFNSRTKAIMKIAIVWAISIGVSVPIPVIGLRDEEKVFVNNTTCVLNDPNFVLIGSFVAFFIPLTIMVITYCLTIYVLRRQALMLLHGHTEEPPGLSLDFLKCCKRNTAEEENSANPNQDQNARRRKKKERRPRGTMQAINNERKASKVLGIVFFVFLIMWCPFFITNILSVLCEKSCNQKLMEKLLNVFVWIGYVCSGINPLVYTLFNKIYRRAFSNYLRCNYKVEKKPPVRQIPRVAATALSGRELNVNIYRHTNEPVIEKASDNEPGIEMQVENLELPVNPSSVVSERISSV
In words: DRUGMATRIX: Serotonin (5-Hydroxytryptamine) 5-HT2C radioligand binding (ligand: [3H] Mesulergine). The experiment is classed as cell membranes, CHO-K1, Membrane. Conditions: Not Active = under 50% inhibition at 10 µM; for Ki: read-out: Ki.

For a further experiment, the target named is T3, D(4) dopamine receptor (Homo sapiens, UniProt P21917).
T3 sequence (P21917 whole entry): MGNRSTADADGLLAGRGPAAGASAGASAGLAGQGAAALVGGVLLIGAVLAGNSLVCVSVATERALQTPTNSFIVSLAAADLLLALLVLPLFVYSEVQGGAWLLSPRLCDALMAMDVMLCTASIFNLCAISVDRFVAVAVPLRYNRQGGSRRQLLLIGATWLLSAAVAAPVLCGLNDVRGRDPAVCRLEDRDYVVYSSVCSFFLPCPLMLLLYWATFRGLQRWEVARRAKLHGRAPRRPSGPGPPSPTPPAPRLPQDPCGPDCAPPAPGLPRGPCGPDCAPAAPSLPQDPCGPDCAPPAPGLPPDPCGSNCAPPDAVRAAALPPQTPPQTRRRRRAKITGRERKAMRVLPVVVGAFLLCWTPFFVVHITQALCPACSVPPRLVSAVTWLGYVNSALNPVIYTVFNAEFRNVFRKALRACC
In words: DRUGMATRIX: Dopamine D4.2 radioligand binding (ligand: [3H] Spiperone). Format: cell membranes, CHO-K1, Membrane. The following applies: Not Active = under 50% inhibition at 10 µM; for Ki: read-out: Ki.

Experiment [2] addresses T4, Muscarinic acetylcholine receptor M5 (Homo sapiens, UniProt P08912).
T4 sequence (P08912 whole entry): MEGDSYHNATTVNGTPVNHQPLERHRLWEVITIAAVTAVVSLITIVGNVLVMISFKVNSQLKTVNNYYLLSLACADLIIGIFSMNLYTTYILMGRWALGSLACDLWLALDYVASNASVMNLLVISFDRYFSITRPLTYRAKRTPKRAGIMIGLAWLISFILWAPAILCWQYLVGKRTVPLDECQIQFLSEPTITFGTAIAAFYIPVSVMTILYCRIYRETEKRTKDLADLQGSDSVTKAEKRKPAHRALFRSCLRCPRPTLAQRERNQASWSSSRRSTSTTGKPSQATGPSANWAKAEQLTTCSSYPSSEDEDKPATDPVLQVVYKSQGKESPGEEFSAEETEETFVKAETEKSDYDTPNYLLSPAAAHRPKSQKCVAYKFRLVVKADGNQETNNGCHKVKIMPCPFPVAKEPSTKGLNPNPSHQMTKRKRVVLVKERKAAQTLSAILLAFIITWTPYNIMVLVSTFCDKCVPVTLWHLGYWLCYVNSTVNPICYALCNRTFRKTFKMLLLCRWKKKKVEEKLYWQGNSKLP
The experiment is classed as cell membranes, CHO-K1, Membrane. The following applies: for Ki: read-out: Ki.

In experiment [3] the target is Mitogen-activated protein kinase 3 (Homo sapiens, UniProt P27361). In words: DRUGMATRIX: Protein Serine/Threonine Kinase, ERK1 enzyme inhibition (substrate: Myelin Basic Protein). More on the design: species or system Escherichia coli. Conditions: Not Active = under 50% inhibition at 10 µM.
Sequence of Mitogen-activated protein kinase 3 (P27361 whole entry): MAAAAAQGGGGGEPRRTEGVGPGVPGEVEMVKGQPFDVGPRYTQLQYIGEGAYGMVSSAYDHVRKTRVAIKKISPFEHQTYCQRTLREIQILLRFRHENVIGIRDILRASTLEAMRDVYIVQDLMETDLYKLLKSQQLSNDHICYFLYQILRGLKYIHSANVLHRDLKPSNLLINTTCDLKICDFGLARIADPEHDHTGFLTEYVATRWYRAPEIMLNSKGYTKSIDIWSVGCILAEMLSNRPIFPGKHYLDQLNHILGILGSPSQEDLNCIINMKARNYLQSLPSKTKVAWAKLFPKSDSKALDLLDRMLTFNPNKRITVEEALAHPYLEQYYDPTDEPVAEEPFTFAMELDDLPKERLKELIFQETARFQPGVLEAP

Take `CC(C)(C)NC(=O)[C@@H]1C[C@@H]2CCCC[C@@H]2CN1C[C@@H](O)[C@H](Cc1ccccc1)NC(=O)[C@H](CC(N)=O)NC(=O)c1ccc2ccccc2n1`: the IC50 entry (against B2 bradykinin receptor; in experiment [1] (cho-k1); at D(4) dopamine receptor (cho-k1); in experiment [2] (cho-k1); in experiment [3]) was “Not Active” throughout.
Regarding `CC(=O)[C@@]1(O)CC[C@H]2[C@@H]3C[C@H](C)C4=CC(=O)CC[C@]4(C)[C@H]3CC[C@@]21C`, the IC50 result (at B2 bradykinin receptor; in experiment [1] (cho-k1); at D(4) dopamine receptor (cho-k1); in experiment [2] (cho-k1); in experiment [3]) was “Not Active” throughout.
Consider `N[C@@H](Cc1ccc(N(CCCl)CCCl)cc1)C(=O)O`, for which the IC50 entry (at B2 bradykinin receptor; in experiment [1] (cho-k1); at D(4) dopamine receptor (cho-k1); in experiment [2] (cho-k1); in experiment [3]) was “Not Active” throughout.
As for `CCCCc1oc2ccccc2c1C(=O)c1cc(I)c(OCCN(CC)CC)c(I)c1` [AMIODARONE], the IC50 at D(4) dopamine receptor (read-out: IC50) was 17.7 µM; in experiment [2] (read-out: IC50), 1.5 µM; in experiment [3], “Not Active”. Moreover, the Ki on D(4) dopamine receptor came to 6.21 µM; in experiment [2] it was 1.08 µM.
Consider `OCCN(CCO)c1nc(N2CCCCC2)c2nc(N(CCO)CCO)nc(N3CCCCC3)c2n1` [DIPYRIDAMOLE], for which the IC50 entry (against B2 bradykinin receptor; in experiment [1] (cho-k1); on D(4) dopamine receptor (cho-k1); in experiment [2] (cho-k1); in experiment [3]) was “Not Active” in each case.
In the case of `Cc1oncc1C(=O)Nc1ccc(C(F)(F)F)cc1` [LEFLUNOMIDE], the IC50 entry (against B2 bradykinin receptor; in experiment [1] (cho-k1); on D(4) dopamine receptor (cho-k1); in experiment [2] (cho-k1); in experiment [3]) was “Not Active” throughout.
As for `c1ccc([C@H]2CN3CCSC3=N2)cc1` [LEVAMISOLE], the IC50 entry (on B2 bradykinin receptor; in experiment [1] (cho-k1); at D(4) dopamine receptor (cho-k1); in experiment [2] (cho-k1); in experiment [3]) was “Not Active” each time.
For `N[C@@H](Cc1ccc(O)c(O)c1)C(=O)O` [LEVODOPA], the IC50 result (on B2 bradykinin receptor; in experiment [1] (cho-k1); on D(4) dopamine receptor (cho-k1); in experiment [2] (cho-k1); in experiment [3]) was “Not Active” each time.
With `N[C@@H](Cc1cc(I)c(Oc2ccc(O)c(I)c2)c(I)c1)C(=O)O` [LIOTHYRONINE], the IC50 result (at B2 bradykinin receptor; in experiment [1] (cho-k1); on D(4) dopamine receptor (cho-k1); in experiment [2] (cho-k1); in experiment [3]) was “Not Active” in each case.
For `O=NN(CCCl)C(=O)NC1CCCCC1` [LOMUSTINE], the IC50 result (on B2 bradykinin receptor; in experiment [1] (cho-k1); on D(4) dopamine receptor (cho-k1); in experiment [2] (cho-k1); in experiment [3]) was “Not Active” throughout.
Consider `CCOC(=O)N1CCC(=C2c3ccc(Cl)cc3CCc3cccnc32)CC1` [LORATADINE], for which the IC50 entry (against B2 bradykinin receptor; in experiment [1] (cho-k1); on D(4) dopamine receptor (cho-k1); in experiment [2] (cho-k1); in experiment [3]) was “Not Active” in each case.
Regarding `Cn1ccnc1S` [METHIMAZOLE], the IC50 entry (against B2 bradykinin receptor; in experiment [1] (cho-k1); on D(4) dopamine receptor (cho-k1); in experiment [2] (cho-k1); in experiment [3]) was “Not Active” throughout.
`CC[C@@H](CO)NC(=O)[C@@H]1C=C2c3cccc4[nH]cc(c34)C[C@H]2N(C)C1` [METHYLERGONOVINE]: the IC50 entry at B2 bradykinin receptor is “Not Active”; in experiment [1] (read-out: IC50), 0.013 µM; at D(4) dopamine receptor (cho-k1), “Not Active”; in experiment [2] (cho-k1), “Not Active”; in experiment [3], “Not Active”. The Ki in experiment [1] stood at 0.00656 µM.
Regarding `COc1nc(C)nc(Cl)c1NC1=NCCN1` [MOXONIDINE], the IC50 result (against B2 bradykinin receptor; in experiment [1] (cho-k1); on D(4) dopamine receptor (cho-k1); in experiment [2] (cho-k1); in experiment [3]) was “Not Active” each time.
For the molecule `COc1c(C)c2c(c(O)c1C/C=C(\C)CCC(=O)O)C(=O)OC2` [MYCOPHENOLIC ACID], the IC50 result (on B2 bradykinin receptor; in experiment [1] (cho-k1); at D(4) dopamine receptor (cho-k1); in experiment [2] (cho-k1); in experiment [3]) was “Not Active” throughout.
In the case of `O=c1ncn2nc(Sc3ccc(F)cc3F)ccc2c1-c1c(Cl)cccc1Cl` [NEFLAMAPIMOD], the IC50 result (on B2 bradykinin receptor; in experiment [1] (cho-k1); on D(4) dopamine receptor (cho-k1); in experiment [2] (cho-k1); in experiment [3]) was “Not Active” throughout.
Consider `CN1CCN(CCCN2c3ccccc3Sc3ccc(Cl)cc32)CC1` [PROCHLORPERAZINE], for which the IC50 result against B2 bradykinin receptor was “Not Active”; at D(4) dopamine receptor (read-out: IC50), 2.31 µM; in experiment [2] (read-out: IC50), 0.22 µM; in experiment [3], “Not Active”. For the same molecule, the Ki was 0.81 µM at D(4) dopamine receptor and 0.158 µM in experiment [2].
Consider `CO[C@H]1/C=C/O[C@@]2(C)Oc3c(C)c(O)c4c(O)c(c(/C=N/N5CCN(C)CC5)c(O)c4c3C2=O)NC(=O)/C(C)=C\C=C\[C@H](C)[C@H](O)[C@@H](C)[C@@H](O)[C@@H](C)[C@H](OC(C)=O)[C@@H]1C` [RIFAMPIN], for which the IC50 result (against B2 bradykinin receptor; in experiment [1] (cho-k1); on D(4) dopamine receptor (cho-k1); in experiment [2] (cho-k1); in experiment [3]) was “Not Active” in each case.
As to `Nc1nc2ccc(OC(F)(F)F)cc2s1` [RILUZOLE], the IC50 entry (against B2 bradykinin receptor; in experiment [1] (cho-k1); at D(4) dopamine receptor (cho-k1); in experiment [2] (cho-k1); in experiment [3]) was “Not Active” throughout.
As for `Cc1nc2n(c(=O)c1CCN1CCC(c3noc4cc(F)ccc34)CC1)CCCC2` [RISPERIDONE], the IC50 result (on B2 bradykinin receptor; at D(4) dopamine receptor (cho-k1); in experiment [2] (cho-k1); in experiment [3]) was “Not Active” throughout.
On to `C=CCC1(C(C)CCC)C(=O)NC(=O)NC1=O` (stereo not drawn) [SECOBARBITAL], for which the IC50 result (at B2 bradykinin receptor; in experiment [1] (cho-k1); at D(4) dopamine receptor (cho-k1); in experiment [2] (cho-k1); in experiment [3]) was “Not Active” in each case.
With `C[C@@H]1CN(c2c(F)c(N)c3c(=O)c(C(=O)O)cn(C4CC4)c3c2F)C[C@H](C)N1` [SPARFLOXACIN], the IC50 entry (against B2 bradykinin receptor; in experiment [1] (cho-k1); on D(4) dopamine receptor (cho-k1); in experiment [2] (cho-k1); in experiment [3]) was “Not Active” in each case.
Turning to `Cc1noc(NS(=O)(=O)c2ccc(N)cc2)c1C` [SULFISOXAZOLE], the IC50 result (against B2 bradykinin receptor; in experiment [1] (cho-k1); on D(4) dopamine receptor (cho-k1); in experiment [2] (cho-k1); in experiment [3]) was “Not Active” throughout.
As to `CC/C(=C(\c1ccccc1)c1ccc(OCCN(C)C)cc1)c1ccccc1` [TAMOXIFEN], the IC50 in experiment [1] (read-out: IC50) was 0.46 µM; at D(4) dopamine receptor (read-out: IC50), 11.2 µM; in experiment [2] (read-out: IC50), 2.58 µM; in experiment [3], “Not Active”. In addition, the Ki in experiment [1] is 0.241 µM; on D(4) dopamine receptor, 3.91 µM; in experiment [2], 1.86 µM.
